Data as given in publication PMC10046369, “Low-Affinity/High-Selectivity Dopamine Transport Inhibition Sufficient to Rescue Cognitive Functions in the Aging Rat” (Biomolecules, 2023).

What was measured:
Assay in all cases: biochemical
Set-up in all cases: KINOMEscan competition binding panel, per cent of control
Settings in all cases: read-out: %Ctrl @ 2800nM
[1] = target: T1, RSK1(Kin.Dom.2-C-terminal) (Homo sapiens, UniProt Q15418)
T1 construct: gene RPS6KA1; Kin.Dom.2-C-terminal
How it was run: (§1)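 Values are expressed as percent of control, calculated as ((test − positive control)/(negative control − positive control)) × 100, so lower numbers mean stronger hits. Binding was measured by KINOMEscan competition assay in a 450-kinase human panel including disease mutants, using the contractor's validated protocol.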

[2] = target: AAK1 (Homo sapiens, UniProt Q2M2I8)
How it was run: as §1

[3] = target: SLK (Homo sapiens, UniProt Q9H2G2)
How it was run: as §1

[4] = target: BTK (Homo sapiens, UniProt Q06187)
How it was run: as §1

[5] = target: KIT (Homo sapiens, UniProt P10721)
How it was run: as §1

[6] = target: CASK (Homo sapiens, UniProt O14936)
How it was run: as §1

[7] = target: AURKA (Homo sapiens, UniProt O14965)
Sequence of AURKA (O14965 whole entry): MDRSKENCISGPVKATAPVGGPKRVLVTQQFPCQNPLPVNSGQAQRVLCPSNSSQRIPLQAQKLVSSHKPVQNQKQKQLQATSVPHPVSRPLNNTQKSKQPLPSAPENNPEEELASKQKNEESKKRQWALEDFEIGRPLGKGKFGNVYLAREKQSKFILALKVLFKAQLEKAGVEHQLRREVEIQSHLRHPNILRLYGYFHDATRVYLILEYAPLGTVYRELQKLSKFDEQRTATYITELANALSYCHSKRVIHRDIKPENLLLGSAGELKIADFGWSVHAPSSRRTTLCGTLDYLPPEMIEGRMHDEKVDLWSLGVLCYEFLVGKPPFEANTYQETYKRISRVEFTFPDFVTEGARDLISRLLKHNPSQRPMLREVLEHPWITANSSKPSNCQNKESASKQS
How it was run: as §1

[8] = target: FRK (Homo sapiens, UniProt P42685)
Sequence of FRK (P42685 whole entry): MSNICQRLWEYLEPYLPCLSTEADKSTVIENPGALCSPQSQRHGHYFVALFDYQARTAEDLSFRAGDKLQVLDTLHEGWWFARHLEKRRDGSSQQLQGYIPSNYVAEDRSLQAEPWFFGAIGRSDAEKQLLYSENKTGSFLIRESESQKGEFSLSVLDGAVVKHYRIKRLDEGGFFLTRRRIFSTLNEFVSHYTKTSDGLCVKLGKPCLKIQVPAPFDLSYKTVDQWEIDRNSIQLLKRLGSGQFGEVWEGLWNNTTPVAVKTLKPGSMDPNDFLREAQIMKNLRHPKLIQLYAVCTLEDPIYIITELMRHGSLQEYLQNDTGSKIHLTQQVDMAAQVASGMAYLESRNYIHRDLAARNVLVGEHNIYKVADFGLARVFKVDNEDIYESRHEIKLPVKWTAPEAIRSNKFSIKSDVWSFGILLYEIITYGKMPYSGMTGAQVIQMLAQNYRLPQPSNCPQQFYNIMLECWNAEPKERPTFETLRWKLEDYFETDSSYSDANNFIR
How it was run: as §1

[9] = target: PKN2 (Homo sapiens, UniProt Q16513)
Sequence of PKN2 (Q16513 whole entry): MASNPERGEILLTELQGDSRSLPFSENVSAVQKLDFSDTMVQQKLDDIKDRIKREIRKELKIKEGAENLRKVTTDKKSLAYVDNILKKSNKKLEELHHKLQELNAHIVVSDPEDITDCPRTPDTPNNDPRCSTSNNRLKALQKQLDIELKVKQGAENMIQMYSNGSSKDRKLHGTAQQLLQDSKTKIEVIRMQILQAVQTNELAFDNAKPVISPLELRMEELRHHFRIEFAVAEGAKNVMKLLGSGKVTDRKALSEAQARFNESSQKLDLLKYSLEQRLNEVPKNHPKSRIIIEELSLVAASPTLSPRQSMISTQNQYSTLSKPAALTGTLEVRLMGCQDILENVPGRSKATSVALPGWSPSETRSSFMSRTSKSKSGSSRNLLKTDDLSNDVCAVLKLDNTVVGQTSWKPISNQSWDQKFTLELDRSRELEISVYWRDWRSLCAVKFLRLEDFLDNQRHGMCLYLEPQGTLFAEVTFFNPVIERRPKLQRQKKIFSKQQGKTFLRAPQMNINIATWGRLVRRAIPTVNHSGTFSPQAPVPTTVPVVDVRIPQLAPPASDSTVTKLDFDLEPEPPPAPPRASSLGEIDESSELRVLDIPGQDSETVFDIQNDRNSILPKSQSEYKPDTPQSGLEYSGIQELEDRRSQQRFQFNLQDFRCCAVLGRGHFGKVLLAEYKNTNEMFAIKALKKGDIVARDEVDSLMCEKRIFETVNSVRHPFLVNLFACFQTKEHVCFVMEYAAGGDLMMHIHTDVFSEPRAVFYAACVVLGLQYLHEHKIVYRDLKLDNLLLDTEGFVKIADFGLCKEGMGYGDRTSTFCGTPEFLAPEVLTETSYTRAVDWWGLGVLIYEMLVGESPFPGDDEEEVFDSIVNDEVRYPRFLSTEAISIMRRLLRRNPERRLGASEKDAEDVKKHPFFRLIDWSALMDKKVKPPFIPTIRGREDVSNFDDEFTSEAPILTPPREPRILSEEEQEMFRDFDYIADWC
How it was run: as §1

[10] = target: MAK (Homo sapiens, UniProt P20794)
How it was run: as §1

[11] = target: T2, JNK3 (Homo sapiens, UniProt P53779)
T2 construct: gene MAPK10
T2 sequence (P53779 whole entry): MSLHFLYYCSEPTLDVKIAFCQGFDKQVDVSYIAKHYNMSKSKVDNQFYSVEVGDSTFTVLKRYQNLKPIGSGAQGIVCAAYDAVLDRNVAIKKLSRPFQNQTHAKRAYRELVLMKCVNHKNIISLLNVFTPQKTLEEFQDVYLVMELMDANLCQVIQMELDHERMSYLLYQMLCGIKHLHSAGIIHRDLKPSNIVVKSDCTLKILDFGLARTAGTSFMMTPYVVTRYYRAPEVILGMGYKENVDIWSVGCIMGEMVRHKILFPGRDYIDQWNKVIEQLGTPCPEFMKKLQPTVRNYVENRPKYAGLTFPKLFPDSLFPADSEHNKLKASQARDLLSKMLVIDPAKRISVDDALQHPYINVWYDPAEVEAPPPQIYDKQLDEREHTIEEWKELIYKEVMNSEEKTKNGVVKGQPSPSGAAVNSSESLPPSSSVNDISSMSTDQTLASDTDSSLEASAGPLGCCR
How it was run: as §1

[12] = target: T3, BIKE (Homo sapiens, UniProt Q9NSY1)
T3 construct: gene BMP2K
How it was run: as §1

[13] = target: PHKG2 (Homo sapiens, UniProt P15735)
How it was run: as §1

[14] = target: STK39 (Homo sapiens, UniProt Q9UEW8)
How it was run: as §1

[15] = target: AKT2 (Homo sapiens, UniProt P31751)
How it was run: as §1

[16] = target: HCK (Homo sapiens, UniProt P08631)
How it was run: as §1

[17] = target: T4, BRK (Homo sapiens, UniProt Q13882)
T4 construct: gene PTK6
T4 sequence (Q13882 whole entry): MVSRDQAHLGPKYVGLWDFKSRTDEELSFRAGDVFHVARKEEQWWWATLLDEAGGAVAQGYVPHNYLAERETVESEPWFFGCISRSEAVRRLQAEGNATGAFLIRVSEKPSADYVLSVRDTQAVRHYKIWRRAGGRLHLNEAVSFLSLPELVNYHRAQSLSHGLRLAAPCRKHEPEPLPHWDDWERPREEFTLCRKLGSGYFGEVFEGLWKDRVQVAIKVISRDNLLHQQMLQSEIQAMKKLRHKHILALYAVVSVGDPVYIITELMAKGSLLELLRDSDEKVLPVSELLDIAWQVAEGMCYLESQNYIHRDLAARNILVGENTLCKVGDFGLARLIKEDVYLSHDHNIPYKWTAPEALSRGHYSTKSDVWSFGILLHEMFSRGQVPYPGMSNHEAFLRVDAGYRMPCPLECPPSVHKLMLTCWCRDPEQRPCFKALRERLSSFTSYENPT
How it was run: as §1

[18] = target: LATS2 (Homo sapiens, UniProt Q9NRM7)
How it was run: as §1

[19] = target: CHEK2 (Homo sapiens, UniProt O96017)
How it was run: as §1

[20] = target: T5, TRKC (Homo sapiens, UniProt Q16288)
T5 construct: gene NTRK3
T5 sequence (Q16288 whole entry): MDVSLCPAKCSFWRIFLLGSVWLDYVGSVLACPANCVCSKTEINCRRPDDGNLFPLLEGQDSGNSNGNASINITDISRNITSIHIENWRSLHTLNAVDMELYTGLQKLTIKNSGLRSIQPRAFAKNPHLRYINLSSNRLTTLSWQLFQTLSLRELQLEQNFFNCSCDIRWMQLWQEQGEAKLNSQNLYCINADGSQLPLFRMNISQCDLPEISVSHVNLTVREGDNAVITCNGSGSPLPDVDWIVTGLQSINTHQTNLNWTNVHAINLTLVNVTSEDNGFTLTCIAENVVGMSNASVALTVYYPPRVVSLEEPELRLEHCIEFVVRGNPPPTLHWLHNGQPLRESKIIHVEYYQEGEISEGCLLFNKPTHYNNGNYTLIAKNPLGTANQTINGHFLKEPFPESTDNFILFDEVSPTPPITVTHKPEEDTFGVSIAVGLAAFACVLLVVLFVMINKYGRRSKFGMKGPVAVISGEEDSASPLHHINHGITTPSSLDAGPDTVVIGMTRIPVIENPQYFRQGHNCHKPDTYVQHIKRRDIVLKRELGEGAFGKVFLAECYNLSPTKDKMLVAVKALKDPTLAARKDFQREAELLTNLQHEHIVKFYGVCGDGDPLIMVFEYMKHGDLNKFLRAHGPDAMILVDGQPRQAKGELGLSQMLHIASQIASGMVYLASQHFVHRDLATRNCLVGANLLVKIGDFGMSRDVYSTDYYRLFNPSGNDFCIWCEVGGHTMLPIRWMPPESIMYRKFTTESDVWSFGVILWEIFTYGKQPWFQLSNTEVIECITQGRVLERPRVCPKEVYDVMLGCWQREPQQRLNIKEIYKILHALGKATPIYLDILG
How it was run: as §1

[21] = target: CSNK1E (Homo sapiens, UniProt P49674)
Sequence of CSNK1E (P49674 whole entry): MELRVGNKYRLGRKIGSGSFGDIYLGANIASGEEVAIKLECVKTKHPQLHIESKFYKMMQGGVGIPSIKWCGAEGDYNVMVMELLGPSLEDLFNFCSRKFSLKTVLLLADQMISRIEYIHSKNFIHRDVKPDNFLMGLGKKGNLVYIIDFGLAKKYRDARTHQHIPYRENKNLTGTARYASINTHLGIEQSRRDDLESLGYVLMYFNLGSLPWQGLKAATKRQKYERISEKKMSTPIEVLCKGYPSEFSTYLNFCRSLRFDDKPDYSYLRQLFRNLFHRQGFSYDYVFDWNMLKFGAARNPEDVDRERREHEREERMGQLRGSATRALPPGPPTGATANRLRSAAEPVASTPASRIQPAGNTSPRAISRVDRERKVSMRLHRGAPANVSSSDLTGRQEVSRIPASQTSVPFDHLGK
How it was run: as §1

[22] = target: T6, MEK3 (Homo sapiens, UniProt P46734)
T6 construct: gene MAP2K3
How it was run: as §1

[23] = target: T7, DMPK2 (Homo sapiens, UniProt Q6DT37)
T7 construct: gene CDC42BPG
How it was run: as §1

[24] = target: PAK2 (Homo sapiens, UniProt Q13177)
How it was run: as §1

[25] = target: MUSK (Homo sapiens, UniProt O15146)
Sequence of MUSK (O15146 whole entry): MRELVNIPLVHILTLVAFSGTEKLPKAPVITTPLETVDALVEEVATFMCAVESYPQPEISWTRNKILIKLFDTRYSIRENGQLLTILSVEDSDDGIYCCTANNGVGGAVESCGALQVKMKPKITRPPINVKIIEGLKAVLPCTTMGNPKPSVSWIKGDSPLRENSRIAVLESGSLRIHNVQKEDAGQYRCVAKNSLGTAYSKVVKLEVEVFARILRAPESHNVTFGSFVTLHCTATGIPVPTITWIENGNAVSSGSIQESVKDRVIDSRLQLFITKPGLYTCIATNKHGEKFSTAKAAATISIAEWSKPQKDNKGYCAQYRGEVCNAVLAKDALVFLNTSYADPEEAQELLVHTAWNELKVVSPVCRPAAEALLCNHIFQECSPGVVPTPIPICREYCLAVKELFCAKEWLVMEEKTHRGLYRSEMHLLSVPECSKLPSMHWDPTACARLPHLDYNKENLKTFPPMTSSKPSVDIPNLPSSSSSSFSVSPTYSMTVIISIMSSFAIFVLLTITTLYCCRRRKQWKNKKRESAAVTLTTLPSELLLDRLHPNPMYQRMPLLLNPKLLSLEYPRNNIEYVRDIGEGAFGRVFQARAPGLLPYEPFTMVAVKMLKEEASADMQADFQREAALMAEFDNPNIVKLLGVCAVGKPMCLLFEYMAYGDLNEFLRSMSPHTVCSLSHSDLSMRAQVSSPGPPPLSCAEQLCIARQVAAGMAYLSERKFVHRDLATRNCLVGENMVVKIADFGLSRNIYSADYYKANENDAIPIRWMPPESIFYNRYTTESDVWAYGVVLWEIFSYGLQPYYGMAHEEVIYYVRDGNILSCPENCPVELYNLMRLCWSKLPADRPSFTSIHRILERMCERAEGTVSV
How it was run: as §1

[26] = target: T8, MST2 (Homo sapiens, UniProt Q13188)
T8 construct: gene STK3
How it was run: as §1

[27] = target: FGFR4 (Homo sapiens, UniProt P22455)
How it was run: as §1

SMILES: [O-][S@@+](Cc1cncs1)C(c1ccccc1)c1ccccc1 [S-CE-123, (S)-5-((Benzhydrylsulfinyl)Methyl)Thiazole]
- remaining binding at 2.8 µM [1]: 92%
- remaining binding at 2.8 µM [2]: 88%
- remaining binding at 2.8 µM [3]: 100%
- remaining binding at 2.8 µM [4]: 100%
- remaining binding at 2.8 µM [5]: 97%
- remaining binding at 2.8 µM [6]: 82%
- remaining binding at 2.8 µM [7]: 91%
- remaining binding at 2.8 µM [8]: 96%
- remaining binding at 2.8 µM [9]: 86%
- remaining binding at 2.8 µM [10]: 94%
- remaining binding at 2.8 µM [11]: 74%
- remaining binding at 2.8 µM [12]: 97%
- remaining binding at 2.8 µM [13]: 96%
- remaining binding at 2.8 µM [14]: 100%
- remaining binding at 2.8 µM [15]: 87%
- remaining binding at 2.8 µM [16]: 99%
- remaining binding at 2.8 µM [17]: 96%
- remaining binding at 2.8 µM [18]: 100%
- remaining binding at 2.8 µM [19]: 78%
- remaining binding at 2.8 µM [20]: 100%
- remaining binding at 2.8 µM [21]: 96%
- remaining binding at 2.8 µM [22]: 86%
- remaining binding at 2.8 µM [23]: 88%
- remaining binding at 2.8 µM [24]: 77%
- remaining binding at 2.8 µM [25]: 100%
- remaining binding at 2.8 µM [26]: 80%
- remaining binding at 2.8 µM [27]: 100%
